Common to all, as to assay type: in vivo
Data set [1] relates to Beet Armyworm (Spodoptera exigua, LAPHEG). Nature of the data set: Bioassays on Beet Armyworm (BAW), 128-well diet tray assay. To be noted: Spodoptera exigua. Put shortly:
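One to five second-instar larvae per well on artificial diet surface-treated with 50 μg/cm^2 test molecule (applied in 90:10 acetone-water, dried), eight wells per compound. Trays held vented at 25° C., 14:10 light-dark for five to seven days; percent mortality averaged over the eight wells.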

Data set [2] deals with Cabbage Looper (Trichoplusia ni, TRIPNI). Kind of data set: Bioassays on Cabbage Looper (CL), 128-well diet tray assay. To be noted: Trichoplusia ni. Put shortly:
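Each of eight wells receives artificial diet treated at 50 μg/cm^2 with the test molecule, then one to five second-instar larvae. Incubation runs five to seven days at 25° C with a 14:10 light-dark cycle under vented covers. Mortality is scored per well as a percentage and averaged.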

Data set [3] deals with Yellow Fever Mosquito (Aedes aegypti, AEDSAE). To be noted: for YFM rating: Table ABC / ABC-DP rating. The method, boiled down:
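Larvae ~1 day old, in liver powder/water; compound from 4000 ppm DMSO stock diluted with water/acetone (90:10); 6 reps; lidded, RT, 3 d; mortality scored per well, rated.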

[4] abbreviates: Beet Armyworm, rating class, read-out: BAW.
Setting [5] is: Cabbage Looper, rating class, read-out: CL.
[6] abbreviates: Yellow Fever Mosquito, rating class.
[7] abbreviates: Beet Armyworm, Table ABC / ABC-DP rating, read-out: BAW rating.
Where [8] appears, read: Cabbage Looper, Table ABC / ABC-DP rating, read-out: CL rating.
The mark [9] stands for this setting: Table ABC: Biological Results, species BAW, read-out: BAW.
Setting [10] is: Table ABC: Biological Results, species CL, read-out: CL.
Where [11] appears, read: Table ABC: Biological Results, species YFM.

Like-named read-outs stand apart in the source and are kept apart here.

As to `O=C(Nc1c(F)ccc(NC(=O)C(F)F)c1F)c1cc(NC(=O)[C@H]2[C@H](c3cc(Cl)c(Cl)c(Cl)c3)C2(Cl)Cl)ccc1F` [F1555, 5-((1R,3R)-2,2-Dichloro-3-(3,4,5-trichlorophenyl)cyclopropane-1-carboxamido)-N-(3-(2,2-difluoroacetamido)-2,6-difluorophenyl)-2-fluorobenzamide], the pest or weed control at 50 µg/cm2 in data set [1] (setting [4]) and in data set [2] (setting [5]) was 50 to 100% throughout. Moreover, the YFM entry in data set [3] (setting [6]) is recorded as “A (80–100)”.
As for `O=C(NCC(F)(F)C(F)(F)F)c1cc(NC(=O)[C@H]2[C@H](c3ccc(F)c(Cl)c3)C2(Cl)Cl)cc(F)c1Cl` (relative stereo) [F2035, trans-2-Chloro-5-(2,2-dichloro-3-(3-chloro-4-fluorophenyl)cyclopropane-1-carboxamido)-3-fluoro-N-(2,2,3,3,3-pentafluoropropyl)benzamide], the pest or weed control at 50 µg/cm2 in data set [1] (setting [7]) and in data set [2] (setting [8]) was 50 to 100% throughout. Moreover, the YFM rating entry in data set [3] (Yellow Fever Mosquito) was “A (80–100)”.
Regarding `O=C(NCC(F)(F)F)c1cc(NC(=O)[C@H]2[C@H](c3cc(F)c(Cl)c(Cl)c3)C2(Cl)Cl)ccc1Cl` (relative stereo) [F2006, trans-2-Chloro-5-(2,2-dichloro-3-(3,4-dichloro-5-fluorophenyl)cyclopropane-1-carboxamido)-N-(2,2,2-trifluoroethyl)benzamide], the pest or weed control at 50 µg/cm2 in data set [1] (setting [7]) and in data set [2] (setting [8]) was 50 to 100% in each case. In addition, the YFM rating entry in data set [3] (Yellow Fever Mosquito) was “A (80–100)”.
For `CC(C#N)C(=O)Nc1c(F)ccc(NC(=O)c2cc(NC(=O)[C@H]3[C@H](c4ccc(F)c(C(F)(F)F)c4)C3(Cl)Cl)ccc2Cl)c1F` (stereo partly drawn) [F1755, 2-Chloro-N-(3-(2-cyanopropanamido)-2,4-difluorophenyl)-5-((1R,3R)-2,2-dichloro-3-(4-fluoro-3-(trifluoromethyl)phenyl)cyclopropane-1-carboxamido)benzamide], the pest or weed control at 50 µg/cm2 in data set [1] (setting [4]) and in data set [2] (setting [5]) was 50 to 100% in each case. Moreover, the YFM result in data set [3] (setting [6]) is “B (More than 0 – Less than 80)”.
For `CCOC(C)(C)C(=O)Nc1c(F)ccc(NC(=O)c2cc(NC(=O)[C@H]3[C@H](c4ccc(F)c(C(F)(F)F)c4)C3(Cl)Cl)ccc2Cl)c1F` [F1603, 2-Chloro-5-((1R,3R)-2,2-dichloro-3-(4-fluoro-3-(trifluoromethyl)phenyl)cyclopropane-1-carboxamido)-N-(3-(2-ethoxy-2-methylpropanamido)-2,4-difluorophenyl)benzamide], the pest or weed control at 50 µg/cm2 in data set [1] (setting [4]) and in data set [2] (setting [5]) was 50 to 100% throughout. The YFM entry in data set [3] (setting [6]) is “A (80–100)”.
Take `CC(C)(C)CCCC(=O)Nc1c(F)ccc(NC(=O)c2cc(NC(=O)[C@H]3[C@H](c4ccc(F)c(C(F)(F)F)c4)C3(Cl)Cl)ccc2Cl)c1F` [F1856, 2-Chloro-5-((1R,3R)-2,2-dichloro-3-(4-fluoro-3-(trifluoromethyl)phenyl)cyclopropane-1-carboxamido)-N-(3-(5,5-dimethylhexanamido)-2,4-difluorophenyl)benzamide]: the pest or weed control at 50 µg/cm2 in data set [1] (setting [7]) and in data set [2] (setting [8]) was 50 to 100% throughout. For the same compound, the YFM rating entry in data set [3] (Yellow Fever Mosquito) is recorded as “B (More than 0 – Less than 80)”.
For `C=Cc1cc(NC(=O)c2cc(NC(=O)[C@H]3[C@H](c4cc(Cl)cc(Cl)c4)C3(Cl)Cl)ccc2Cl)ccc1F` (relative stereo) [F1311, trans-2-chloro-5-(2,2-dichloro-3-(3,5-dichlorophenyl)cyclopropane-1-carboxamido)-N-(4-fluoro-3-vinylphenyl)benzamide], the pest or weed control at 50 µg/cm2 in data set [1] (setting [9]) and in data set [2] (setting [10]) was 50 to 100% each time. Besides, in data set [3] (setting [11]), the YFM result is given as “A (80–100)”.
Turning to `CC(C)(C)OC(=O)Nc1c(F)ccc(NC(=O)c2cc(NC(=O)[C@@H]3[C@@H](c4ccc(F)c(C(F)(F)F)c4)C3(Cl)Cl)ccc2Cl)c1F` [F1074, tert-Butyl-(3-(2-chloro-5-((1S,3S)-2,2-dichloro-3-(4-fluoro-3-(trifluoromethyl)phenyl)cyclopropane-1-carboxamido)benzamido)-2,6-difluorophenyl)carbamate], the pest or weed control at 50 µg/cm2 in data set [1] (setting [9]) and in data set [2] (setting [10]) was 50 to 100% throughout. Besides, the YFM result in data set [3] (setting [11]) is given as “A (80–100)”.
With `CC(=O)Nc1ccc(F)c(NC(=O)c2cc(NC(=O)[C@H]3[C@H](c4ccc(F)c(C(F)(F)F)c4)C3(Cl)Cl)ccc2F)c1F` [F1562, N-(3-Acetamido-2,6-difluorophenyl)-5-((1R,3R)-2,2-dichloro-3-(4-fluoro-3-(trifluoromethyl)phenyl)cyclopropane-1-carboxamido)-2-fluorobenzamide], the pest or weed control at 50 µg/cm2 in data set [1] (setting [4]) and in data set [2] (setting [5]) was 50 to 100% each time. For the same compound, in data set [3] (setting [6]), the YFM result is reported as “A (80–100)”.
Regarding `CNc1c(F)ccc(N(C)C(=O)c2cc(NC(=O)[C@H]3[C@H](c4ccc(Cl)c(Cl)c4)C3(Cl)Cl)ccc2Cl)c1F` (relative stereo) [F1071, trans-2-Chloro-5-(2,2-dichloro-3-(3,4-dichlorophenyl)cyclopropane-1-carboxamido)-N-(2,4-difluoro-3-(methylamino)phenyl)-N-methylbenzamide], the pest or weed control at 50 µg/cm2 in data set [1] (setting [9]) and in data set [2] (setting [10]) was 50 to 100% throughout. In data set [3] (setting [11]), the YFM result was “A (80–100)”.
Regarding `Cc1c(F)cc(NC(=O)[C@H]2[C@H](c3ccc(F)c(Cl)c3)C2(Cl)Cl)cc1C(=O)NCC(F)(F)F` (relative stereo) [F2063, trans-5-(2,2-Dichloro-3-(3-chloro-4-fluorophenyl)cyclopropane-1-carboxamido)-3-fluoro-2-methyl-N-(2,2,2-trifluoroethyl)benzamide], the pest or weed control at 50 µg/cm2 in data set [1] (setting [7]) and in data set [2] (setting [8]) was 50 to 100% each time. Further, the YFM rating entry in data set [3] (Yellow Fever Mosquito) is reported as “A (80–100)”.
Turning to `Nc1c(F)ccc(NC(=O)c2cc(NC(=O)[C@H]3[C@H](c4cc(Cl)cc(C(F)F)c4)C3(Cl)Cl)ccc2Cl)c1F` (relative stereo) [F1038, trans-N-(3-Amino-2,4-difluorophenyl)-2-chloro-5-(2,2-dichloro-3-(3-chloro-5-(difluoromethyl)phenyl)cyclopropane-1-carboxamido)benzamide], the pest or weed control at 50 µg/cm2 in data set [1] (setting [9]) and in data set [2] (setting [10]) was 50 to 100% throughout. Further, the YFM entry in data set [3] (setting [11]) is reported as “A (80–100)”.
As for `CCOC(C)C(=O)Nc1c(F)ccc(N(C)C(=O)c2cc(NC(=O)[C@H]3[C@H](c4ccc(Cl)c(Cl)c4)C3(Cl)Cl)ccc2Cl)c1F` (stereo partly drawn) [F1794, 2-Chloro-5-((1R,3R)-2,2-dichloro-3-(3,4-dichlorophenyl)cyclopropane-1-carboxamido)-N-(3-(2-ethoxypropanamido)-2,4-difluorophenyl)-N-methylbenzamide], the pest or weed control at 50 µg/cm2 in data set [1] (setting [7]) and in data set [2] (setting [8]) was 50 to 100% in each case. Also, in data set [3] (Yellow Fever Mosquito), the YFM rating entry is reported as “B (More than 0 – Less than 80)”.
Consider `O=C(Nc1ccc(F)cc1)c1cc(NC(=O)[C@H]2[C@H](c3cc(Cl)c(Cl)c(Br)c3)C2(Cl)Cl)ccc1Cl` (relative stereo) [F1005, trans-5-(3-(3-bromo-4,5-dichlorophenyl)-2,2-dichlorocyclopropane-1-carboxamido)-2-chloro-N-(4-fluorophenyl)benzamide], for which the pest or weed control at 50 µg/cm2 in data set [1] (setting [9]) and in data set [2] (setting [10]) was 50 to 100% in each case. For the same compound, in data set [3] (setting [11]), the YFM entry is “A (80–100)”.
Consider `O=C(NNc1ccc(OC(F)(F)F)cc1)c1cc(NC(=O)[C@H]2[C@H](c3cc(Cl)cc(Cl)c3)C2(Cl)Cl)ccc1Cl` (relative stereo) [F2564, trans-2,2-Dichloro-N-(4-chloro-3-(2-(4-(trifluoromethoxy)phenyl)hydrazine-1-carbonyl)phenyl)-3-(3,5-dichlorophenyl)cyclopropane-1-carboxamide], for which the mortality at 50 µg/cm2 was 50 to 100% in data set [1] (168 h, second instar larvae, 50 μg/cm^2 of test molecule on artificial diet, 25° C., five to seven days, average of eight wells, read-out: BAW % Control (or Mortality) rating) and 50 to 100% in data set [2] (168 h, second instar larvae, 50 μg/cm^2 of test molecule on artificial diet, 25° C., five to seven days, average of eight wells, read-out: CL % Control (or Mortality) rating). Also, the pest or weed control at 50 µg/cm2 in data set [1] (setting [7]) and in data set [2] (setting [8]) was 50 to 100% throughout. Moreover, the YFM rating entry in data set [3] (Yellow Fever Mosquito) was “A (80–100)”. Further, the “YFM % Control (or Mortality) rating” value in data set [3] (about 1 day-old larvae, 4000 ppm master solution diluted with 90:10 water/acetone, 15 μL per well plus 220 μL larval mixture, 3 days, mortality) is “A (80–100)”.
Regarding `O=C(Nc1c(F)ccc(NC(=O)c2cc(NC(=O)[C@H]3[C@H](c4ccc(F)c(C(F)(F)F)c4)C3(Cl)Cl)ccc2Cl)c1F)c1ccon1` [F1818, N-(3-(2-Chloro-5-((1R,3R)-2,2-dichloro-3-(4-fluoro-3-(trifluoromethyl)phenyl)cyclopropane-1-carboxamido)benzamido)-2,6-difluorophenyl)isoxazole-3-carboxamide], the pest or weed control at 50 µg/cm2 in data set [1] (setting [7]) and in data set [2] (setting [8]) was 50 to 100% throughout. The YFM rating result in data set [3] (Yellow Fever Mosquito) was “A (80–100)”.

By mortality is commonly meant the share of the test organisms that died.

(Values after patent US20250228239A1, “MOLECULES HAVING PESTICIDAL UTILITY, AND INTERMEDIATES, COMPOSITIONS, AND PROCESSES, RELATED THERETO” (priority 2024, published 2025).)
